Data taken from patent US20090069302A1 (SMITHKLINE BEECHAM CORPORATION, priority 2006, published 2009).
Blank lines part the entries; values can stand above or below the compound they belong to.

How the values were obtained:
GK rats = test: Effect on glucose, insulin and GLP-1 secretion in GK rats after oral glucose; format: in vivo, rat; parameters: Glucose changes / Insulin changes / GLP-1 changes: unit not given here; conditions: for GLP-1 changes: active GLP-1, DPPIV inhibitor pretreated; for GLP-1 changes / Insulin changes / Glucose changes: 5 mg/kg intracolonic at −30 min, glucose 1 g/kg oral at 0 min; for Insulin changes: plasma; for Insulin changes / Glucose changes: DPPIV inhibitor pretreated; for Glucose changes: whole blood
Experimental: Eight week old conscious GK rats (four per group) were pretreated with a DPPIV inhibitor immediately after control blood sampling at −40 min (black arrow), and dosed with vehicle (0.5% HPMC/0.1% Tween80) or 5 mg/kg Example 14 through intracolonic injection at −30 time point (blue arrow). Glucose (1 g/kg) was given orally at 0 min. Blood samples were collected at −40, 0, 5, 15, 30, 60, 90 and 120 minutes after dosing. Whole blood glucose, plasma insulin, and active GLP-1 were measured (ELISA kits, LINCO). […] The results are listed in Tables 3a, 3b, and 3c, and graphically represented in FIGS. 2a, 2b, and 2c, respectively.

AXOR109 = biological target: T1, AXOR109 (Homo sapiens, UniProt Q8TDU6); test: Human AXOR109/Melanophore Assay; format: cell-based; conditions: melanophore assay; for Emax: 1 h, normalized to alpha-MSH system max; for EC50: AXOR109 transfected melanophores
T1 construct: expressed in transfected cells; host or cells: melanophore cells, transfected by electroporation
T1 sequence (Q8TDU6 1-330): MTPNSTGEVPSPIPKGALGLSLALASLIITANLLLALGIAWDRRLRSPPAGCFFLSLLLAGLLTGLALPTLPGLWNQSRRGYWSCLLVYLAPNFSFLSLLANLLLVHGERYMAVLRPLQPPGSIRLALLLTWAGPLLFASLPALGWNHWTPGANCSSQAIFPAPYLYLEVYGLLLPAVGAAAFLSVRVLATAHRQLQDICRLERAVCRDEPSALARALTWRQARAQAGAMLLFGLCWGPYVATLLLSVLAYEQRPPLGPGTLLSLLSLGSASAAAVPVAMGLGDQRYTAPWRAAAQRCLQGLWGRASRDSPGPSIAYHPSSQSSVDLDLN
How it was run: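 Readout is melanosome dispersion in melanophores electroporated with human AXOR109, in buffer containing 10 nM melatonin and 1% DMSO. Transmittance was read before and after 1 h compound exposure across 11-point 3-fold dilutions. Response was normalized to 200 nM alpha-MSH as system max, and pEC50 was obtained from a Hill fit.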

Emax (AXOR109): 51 to 75%
EC50 (AXOR109): < 126 nM
SMILES: COc1ccc(S(=O)(=O)N(C)CCN(C)S(=O)(=O)c2ccc(OC)c(OC)c2)cc1OC [Example 14, N,N′-1,2-ethanediylbis[N-methyl-3,4-bis(methyloxy)benzenesulfonamide]]
active GLP-1 and insulin level compared to controls (GK rats; 5 mg/kg intracolonic, in words): higher level of active GLP-1 and insulin
glucose disposal compared to controls (GK rats; 5 mg/kg intracolonic, in words): improved glucose disposals
GLP-1 changes (GK rats; 0 min): 15.08
GLP-1 changes (GK rats; 15 min): 23.63
GLP-1 changes (GK rats; 30 min): 19.58
GLP-1 changes (GK rats; 60 min): 23.63
GLP-1 changes (GK rats; 90 min): 23.63
GLP-1 changes (GK rats; 120 min): 21.15
GLP-1 changes (GK rats; −40 min (before dosing)): 12.65
Insulin changes (GK rats; 0 min): 68.06
Insulin changes (GK rats; 15 min): 366.79
Insulin changes (GK rats; 30 min): 289.23
Insulin changes (GK rats; 60 min): 152.33
Insulin changes (GK rats; 90 min): 146.47
Insulin changes (GK rats; 120 min): 158.31
Insulin changes (GK rats; −40 min (before dosing)): 85.82
Glucose changes (GK rats; 0 min): 74.25
Glucose changes (GK rats; 15 min): 173.75
Glucose changes (GK rats; 30 min): 174.75
Glucose changes (GK rats; 60 min): 122.50
Glucose changes (GK rats; 90 min): 110.00
Glucose changes (GK rats; 120 min): 114.50
Glucose changes (GK rats; −40 min (before dosing)): 106.75

Emax (AXOR109): 76 to 100%
EC50 (AXOR109): 126 to 1000 nM
SMILES: COc1ccc(S(=O)(=O)N2CCN(S(=O)(=O)c3ccc(OC)c(OC)c3)C(C)(C)C2)cc1OC [Example 50, 1,4-bis{[3,4-bis(methyloxy)phenyl]sulfonyl}-2,2-dimethylpiperazine]

Emax (AXOR109): 76 to 100%
EC50 (AXOR109): 126 to 1000 nM
SMILES: COc1ccc(S(=O)(=O)N(CCN(C2CC2)S(=O)(=O)c2ccc(OC)c(OC)c2)C(C)C)cc1OC [Example 89]

Emax (AXOR109): 76 to 100%
EC50 (AXOR109): 1260 to 10000 nM
SMILES: COc1ccc(S(=O)(=O)N(C)CCN(C)S(=O)(=O)c2ccc3c(c2)OCCN3C)cc1OC [Example 12, N-methyl-N-{2-[{[3,4-bis(methyloxy)phenyl]sulfonyl}(methyl)amino]ethyl}-4-methyl-3,4-dihydro-2H-1,4-benzoxazine-7-sulfonamide]

EC50 (AXOR109): 1260 to 10000 nM
SMILES: COc1ccc(S(=O)(=O)N2CCC(NS(=O)(=O)c3cccc4cccnc34)C2)cc1OC (stereo not drawn) [Example 16, N-(1-{[3,4-bis(methyloxy)phenyl]sulfonyl}-3-pyrrolidinyl)-8-quinolinesulfonamide]

Emax (AXOR109): 76 to 100%
EC50 (AXOR109): 126 to 1000 nM
SMILES: COc1ccc(S(=O)(=O)N2CCN(S(=O)(=O)c3ccc(OC)c(OC(F)(F)F)c3)CC2)cc1OC [Example 91]

Emax (AXOR109): 76 to 100%
EC50 (AXOR109): 1260 to 10000 nM
SMILES: COc1ccc(S(=O)(=O)N2CCCN(S(=O)(=O)c3ccc(OC)c(OC(F)(F)F)c3)CC2)cc1OC [Example 30, 1-{[3,4-bis(methyloxy)phenyl]sulfonyl}-4-({4-(methyloxy)-3-[(trifluoromethyl)oxy]phenyl}sulfonyl)hexahydro-1H-1,4-diazepine]

Emax (AXOR109): 51 to 75%
EC50 (AXOR109): 126 to 1000 nM
SMILES: COc1ccc(S(=O)(=O)N2CCC(=O)N(S(=O)(=O)c3ccc(OC)c(OC)c3)CC2)cc1OC [Example 28, 1,4-bis{[3,4-bis(methyloxy)phenyl]sulfonyl}hexahydro-5H-1,4-diazepin-5-one]

Emax (AXOR109): 51 to 75%
EC50 (AXOR109): 126 to 1000 nM
SMILES: COc1ccc(S(=O)(=O)N2C[C@H](C)N(S(=O)(=O)c3ccc(OC)c(OC)c3)[C@@H](C)C2)cc1OC [Example 21, (2S,6S)-1,4-bis{[3,4-bis(methyloxy)phenyl]sulfonyl}-2,6-dimethylpiperazine]

Emax (AXOR109): 51 to 75%
EC50 (AXOR109): 1260 to 10000 nM
SMILES: COc1ccc(S(=O)(=O)N2CCN(S(=O)(=O)c3ccc(C)cc3OC)CC2)cc1OC [Example 3, 1-{[3,4-bis(methyloxy)phenyl]sulfonyl}-4-{[4-methyl-2-(methyloxy)phenyl]sulfonyl}piperazine]
